Results published in patent US9409952B2, “Peptide-compound cyclization method” (Chugai Seiyaku Kabushiki Kaisha, priority 2011, dated 2016).
Starred links: 1 amine or outer side, 2 acyl side, 3 side chain; linkers in the order of their positions; H or OH if unused. Positions of bridges follow the written chain, without caps; N, C: chain ends. Non-standard residues stand in square brackets, D forms with d. Residues, ends and D or L forms follow the SMILES beside them. *: point of attachment. NMeF = CN[C@@H](Cc1ccccc1)C(=O)O; NMeβAla = CN(CCC(=O)[*:2])[*:1]; NMeL = CN[C@@H](CC(C)C)C(=O)O; NMeV = CN[C@H](C(=O)O)C(C)C; NMeA = CN[C@@H](C)C(=O)O; Piperidide = C1CCN(*)CC1; dNMeA = CN[C@H](C)C(=O)O; Sar = CNCC(=O)O

Tests used:
[1] = PAMPA (parallel artificial membrane permeability assay); assay type: in vitro ADME; details: PAMPA; membrane permeation rate (Pe); 50 mM MOPSO buffer pH 6.5 with 5.0% glycocholic acid, 37° C., 18 hours; read-out: iPAMPA Pe
How it was run: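 Artificial membrane was 10% (w/v) egg lecithin plus 0.5% (w/v) cholesterol in dodecane on a PVDF filter. A 10 mM DMSO stock was added at 0.5% (v/v) to donor buffer (50 mM MOPSO, pH 6.5, 5.0% glycocholic acid). After 18 h at 37 °C, LC/MS or LC/UV gave donor and acceptor levels for Pe.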

[2] = Metabolic stability in human hepatic microsome; assay type: in vitro ADME; details: microsomes, pH 7.4; human hepatic microsome, NADPH(+); read-out: CL NADPH(+)

SMILES | Papp at 18 hours, 50 µM [1] | microsomal CLint at 1 uM [2]
CC[C@H](C)[C@@H]1NC(=O)[C@H](Cc2ccccc2)N(C)C(=O)[C@H](C)N(C)C(=O)[C@H]([C@@H](C)O)NC(=O)[C@H](CC(C)C)N(C)C(=O)[C@H](C)N(C)C(=O)C[C@@H](C(=O)N(C)[C@@H](Cc2ccccc2)C(=O)N[C@@H](C)C(=O)N2CCCCC2)NC(=O)[C@H](C(C)C)N(C)C(=O)[C@H](CC(C)C)N(C)C(=O)CN(C)C1=O [DP-492] ([NMeA][NMeL]T[NMeA][NMeF]I[Sar][NMeL][NMeV]D[NMeF]A-Piperidide; lactam N-10) | 20 ×10⁻⁶ cm/s | 61 µL/min/mg
CC(C)C[C@H]1C(=O)N(C)[C@@H](CC(C)C)C(=O)N(C)[C@@H](Cc2ccccc2)C(=O)N(C)[C@@H](CC(C)C)C(=O)N[C@H](C(=O)N(C)[C@@H](Cc2ccccc2)C(=O)N[C@@H](C)C(=O)N2CCCCC2)CC(=O)N(C)CC(=O)N[C@@H]([C@@H](C)O)C(=O)N(C)[C@@H](Cc2ccccc2)C(=O)N(C)[C@@H](CC(C)C)C(=O)N[C@@H](C)C(=O)N1C [DP-493] ([Sar]T[NMeF][NMeL]A[NMeL][NMeL][NMeF][NMeL]D[NMeF]A-Piperidide; lactam N-10) | 2.4 ×10⁻⁶ cm/s | 52 µL/min/mg
CC[C@H](C)[C@@H]1NC(=O)CCN(C)C(=O)C[C@@H](C(=O)N(C)[C@@H](Cc2ccccc2)C(=O)N(C)[C@@H](Cc2ccccc2)C(=O)N[C@@H](C)C(=O)N2CCCCC2)NC(=O)[C@H](C(C)C)N(C)C(=O)[C@H](C)NC(=O)[C@H](CC(C)C)N(C)C(=O)CN(C)C(=O)[C@H]([C@@H](C)O)NC(=O)[C@H](C)N(C)C(=O)[C@H](Cc2ccccc2)N(C)C1=O [DP-495] ([NMeβAla]I[NMeF][NMeA]T[Sar][NMeL]A[NMeV]D[NMeF][NMeF]A-Piperidide; lactam N-10) | 21 ×10⁻⁶ cm/s | 7 µL/min/mg
CC[C@H](C)[C@@H]1NC(=O)[C@H](CC(C)C)N(C)C(=O)CCN(C)C(=O)C[C@@H](C(=O)N(C)[C@@H](Cc2ccccc2)C(=O)N(C)[C@@H](Cc2ccccc2)C(=O)N[C@@H](C)C(=O)N2CCCCC2)NC(=O)[C@H](C(C)C)N(C)C(=O)[C@H](CC(C)C)N(C)C(=O)CN(C)C(=O)[C@H]([C@@H](C)O)NC(=O)[C@H](Cc2ccccc2)NC(=O)[C@H](C(C)C)N(C)C1=O [DP-496] ([NMeβAla][NMeL]I[NMeV]FT[Sar][NMeL][NMeV]D[NMeF][NMeF]A-Piperidide; lactam N-10) | 23 ×10⁻⁶ cm/s | 13 µL/min/mg
CC(C)C[C@H]1C(=O)N(C)[C@@H](C(C)C)C(=O)N(C)[C@@H](C)C(=O)N[C@H](C(=O)N(C)[C@@H](Cc2ccccc2)C(=O)N(C)[C@@H](Cc2ccccc2)C(=O)N[C@@H](C)C(=O)N2CCCCC2)CC(=O)N(C)CCC(=O)N(C)CC(=O)N[C@@H]([C@@H](C)O)C(=O)N[C@@H](Cc2ccccc2)C(=O)N(C)[C@@H](C(C)C)C(=O)N[C@@H](C)C(=O)N1C [DP-497] ([NMeβAla][Sar]TF[NMeV]A[NMeL][NMeV][NMeA]D[NMeF][NMeF]A-Piperidide; lactam N-10) | 9.3 ×10⁻⁶ cm/s | 58 µL/min/mg
CC[C@H](C)[C@@H]1NC(=O)[C@H](Cc2ccccc2)N(C)C(=O)[C@H](C)N(C)C(=O)CN(C)C(=O)[C@H]([C@@H](C)O)NC(=O)[C@H](C)N(C)C(=O)[C@H](C(C)C)N(C)C(=O)[C@H](C)NC(=O)CCN(C)C(=O)C[C@@H](C(=O)N(C)[C@@H](Cc2ccccc2)C(=O)N(C)[C@@H](Cc2ccccc2)C(=O)N[C@@H](C)C(=O)N2CCCCC2)NC1=O [DP-498] ([NMeβAla]A[NMeV][NMeA]T[Sar][NMeA][NMeF]ID[NMeF][NMeF]A-Piperidide; lactam N-10) | 2.7 ×10⁻⁶ cm/s | 9 µL/min/mg
CC(C)C[C@H]1C(=O)N(C)[C@@H](C)C(=O)N[C@@H]([C@@H](C)O)C(=O)N(C)[C@@H](C)C(=O)N[C@H](C(=O)N(C)[C@@H](Cc2ccccc2)C(=O)N(C)[C@@H](Cc2ccccc2)C(=O)N[C@@H](C)C(=O)N2CCCCC2)CC(=O)N(C)CCC(=O)N(C)[C@@H](Cc2ccccc2)C(=O)N(C)[C@@H](CC(C)C)C(=O)N(C)[C@@H](C)C(=O)N[C@@H](C(C)C)C(=O)N1C [DP-500] ([NMeβAla][NMeF][NMeL][NMeA]V[NMeL][NMeA]T[NMeA]D[NMeF][NMeF]A-Piperidide; lactam N-10) | 27 ×10⁻⁶ cm/s | 28 µL/min/mg
CC(C)C[C@H]1C(=O)N(C)[C@@H](C(C)C)C(=O)N[C@@H](Cc2ccccc2)C(=O)N[C@H](C(=O)N(C)[C@@H](Cc2ccccc2)C(=O)N(C)[C@@H](Cc2ccccc2)C(=O)N[C@@H](C)C(=O)N2CCCCC2)CC(=O)N[C@H](C)C(=O)N[C@@H](C(C)C)C(=O)N(C)[C@@H](CC(C)C)C(=O)N[C@@H]([C@@H](C)O)C(=O)N(C)[C@@H](Cc2ccccc2)C(=O)NCC(=O)N1C [DP-501] ([dA]V[NMeL]T[NMeF]G[NMeL][NMeV]FD[NMeF][NMeF]A-Piperidide; lactam N-10) | 0.23 ×10⁻⁶ cm/s | 7 µL/min/mg
CC[C@H](C)[C@@H]1NC(=O)[C@H](C)N(C)C(=O)[C@H](CC(C)C)N(C)C(=O)CN(C)C(=O)[C@H]([C@@H](C)O)NC(=O)[C@H](C(C)C)N(C)C(=O)[C@H](C)N(C)C(=O)[C@H](Cc2ccccc2)NC(=O)[C@@H](C)NC(=O)C[C@@H](C(=O)N(C)[C@@H](Cc2ccccc2)C(=O)N(C)[C@@H](Cc2ccccc2)C(=O)N[C@@H](C)C(=O)N2CCCCC2)NC1=O [DP-502] ([dA]F[NMeA][NMeV]T[Sar][NMeL][NMeA]ID[NMeF][NMeF]A-Piperidide; lactam N-10) | 17 ×10⁻⁶ cm/s | 19 µL/min/mg
CC(C)C[C@H]1C(=O)N[C@@H]([C@@H](C)O)C(=O)N(C)[C@@H](Cc2ccccc2)C(=O)N(C)[C@@H](CC(C)C)C(=O)NCC(=O)N(C)[C@@H](C(C)C)C(=O)N[C@@H](Cc2ccccc2)C(=O)N[C@H](C(=O)N(C)[C@@H](Cc2ccccc2)C(=O)N(C)[C@@H](Cc2ccccc2)C(=O)N[C@@H](C)C(=O)N2CCCCC2)CC(=O)N(C)[C@H](C)C(=O)N[C@@H](C(C)C)C(=O)N1C [DP-503] ([dNMeA]V[NMeL]T[NMeF][NMeL]G[NMeV]FD[NMeF][NMeF]A-Piperidide; lactam N-10) | 0.2 ×10⁻⁶ cm/s | 43 µL/min/mg
CC(C)[C@@H]1NC(=O)[C@H](Cc2ccccc2)N(C)C(=O)[C@H](C)N(C)C(=O)[C@H]([C@@H](C)O)NC(=O)[C@H](C)N(C)C(=O)CNC(=O)[C@H](Cc2ccccc2)NC(=O)[C@@H](C)N(C)C(=O)C[C@@H](C(=O)N(C)[C@@H](Cc2ccccc2)C(=O)N(C)[C@@H](Cc2ccccc2)C(=O)N[C@@H](C)C(=O)N2CCCCC2)NC(=O)[C@H](C(C)C)N(C)C1=O [DP-504] ([dNMeA]FG[NMeA]T[NMeA][NMeF]V[NMeV]D[NMeF][NMeF]A-Piperidide; lactam N-10) | 31 ×10⁻⁶ cm/s | 216 µL/min/mg
CC(C)[C@@H]1NC(=O)[C@H](C)N(C)C(=O)CNC(=O)[C@H]([C@@H](C)O)NC(=O)[C@H](C(C)C)N(C)C(=O)[C@H](C)NC(=O)[C@@H](C)N(C)C(=O)C[C@@H](C(=O)N(C)[C@@H](Cc2ccccc2)C(=O)N(C)[C@@H](Cc2ccccc2)C(=O)N[C@@H](C)C(=O)N2CCCCC2)NC(=O)[C@H](Cc2ccccc2)N(C)C(=O)[C@H](C)N(C)C1=O [DP-505] ([dNMeA]A[NMeV]TG[NMeA]V[NMeA][NMeF]D[NMeF][NMeF]A-Piperidide; lactam N-10) | 6.8 ×10⁻⁶ cm/s | 18 µL/min/mg
CC[C@H](C)[C@@H]1NC(=O)[C@H](C)N(C)C(=O)[C@H](C)N(C)C(=O)[C@H]([C@@H](C)O)NC(=O)CN(C)C(=O)[C@H](C(C)C)N(C)C(=O)[C@H](CC(C)C)N(C)C(=O)[C@H](Cc2ccccc2)NC(=O)[C@@H](C)N(C)C(=O)C[C@@H](C(=O)N(C)[C@@H](Cc2ccccc2)C(=O)N(C)[C@@H](Cc2ccccc2)C(=O)N[C@@H](C)C(=O)N2CCCCC2)NC1=O [DP-506] ([dNMeA]F[NMeL][NMeV][Sar]T[NMeA][NMeA]ID[NMeF][NMeF]A-Piperidide; lactam N-10) | 20 ×10⁻⁶ cm/s | 14 µL/min/mg
CC(C)C[C@H]1C(=O)N(C)[C@@H](C)C(=O)N(C)[C@@H](C(C)C)C(=O)N[C@@H](C)C(=O)N[C@H](C(=O)N(C)[C@@H](Cc2ccccc2)C(=O)N(C)[C@@H](Cc2ccccc2)C(=O)N[C@@H](C)C(=O)N2CCCCC2)CC(=O)N(C)[C@H](C)C(=O)N(C)CC(=O)N[C@@H]([C@@H](C)O)C(=O)N(C)[C@@H](C)C(=O)N[C@@H](Cc2ccccc2)C(=O)N1C [DP-507] ([dNMeA][Sar]T[NMeA]F[NMeL][NMeA][NMeV]AD[NMeF][NMeF]A-Piperidide; lactam N-10) | 11 ×10⁻⁶ cm/s | 17 µL/min/mg
CC[C@H](C)[C@@H]1NC(=O)[C@H](C)N(C)C(=O)[C@H]([C@@H](C)O)NC(=O)CN(C)C(=O)[C@H](C)N(C)C(=O)[C@H](C)NC(=O)[C@H](C)N(C)C(=O)[C@@H](C)N(C)C(=O)C[C@@H](C(=O)N(C)[C@@H](Cc2ccccc2)C(=O)N(C)[C@@H](Cc2ccccc2)C(=O)N[C@@H](C)C(=O)N2CCCCC2)NC(=O)[C@H](Cc2ccccc2)N(C)C1=O [DP-508] ([dNMeA][NMeA]A[NMeA][Sar]T[NMeA]I[NMeF]D[NMeF][NMeF]A-Piperidide; lactam N-10) | 2.5 ×10⁻⁶ cm/s | 11 µL/min/mg
CC(C)[C@@H]1NC(=O)[C@H](C)N(C)C(=O)[C@@H](C)N(C)C(=O)C[C@@H](C(=O)N(C)[C@@H](Cc2ccccc2)C(=O)N(C)[C@@H](Cc2ccccc2)C(=O)N[C@@H](C)C(=O)N2CCCCC2)NC(=O)[C@H](C)N(C)C(=O)[C@H](C)N(C)C(=O)[C@H]([C@@H](C)O)NC(=O)[C@H](C)N(C)C(=O)[C@H](Cc2ccccc2)N(C)C(=O)[C@H](C)N(C)C1=O [DP-509] ([dNMeA][NMeA]V[NMeA][NMeF][NMeA]T[NMeA][NMeA]D[NMeF][NMeF]A-Piperidide; lactam N-10) | 5.1 ×10⁻⁶ cm/s | 30 µL/min/mg
